# In patent US4317912A, “Tetracyclic indole derivatives” (Farmitalia Carlo Erba S.p.A., priority 1979, dated 1982):
# Columns and labels:
# [1] = system: spontaneously hypertensive rats (Okamoto strain); experiment: Anti-hypertensive activity in conscious spontaneously hypertensive rats (Okamoto), carotid artery catheter; assay type: in vivo, rat (spontaneously hypertensive
# Experimental: Blood pressure recordings were made in conscious hypertensive unrestrained rats weighing approximately 300 g, via a catheter cronically inserted into the left common carotid artery. Implantation of arterial cannula was made under sodium pentobarbital anesthesia (50 mg/kg i.p.). A 1 cm long incision was made through the previously shaved ventral surface of the neck and the tissues overlying the trachea parted by blunt dissection to reveal the carotid artery. The polyethylene catheter used was made with PE 50 tubing, previously filled with saline containing 250 I.U./ml heparin. The tip of the cannula was pushed at least 2 cm inside the vessel toward the heart. The cannula was then firmly tied and passed beneath the skin to emerge from a small incision in the back of the neck. During the postoperative period and before the start of each recording session, the cannula was flushed through daily with saline containing heparin (250 U.I./ml). The experiments were performed two days after surgery. Drugs were administered by gastric gavage.
# [2] = Acute (orientative) oral toxicity in mice; conditions: mouse, in vivo
# Excerpt: The male mice for each group were orally treated with drugs at different dose levels for the determination of orientative toxicity.
# [3] = system: spontaneously hypertensive male rats, strain MHS; experiment: Anti-hypertensive activity in spontaneously hypertensive rats (MHS), blood pressure and heart rate measured at the tail; assay type: in vivo, rat (spontaneously hypertensive; conditions: MHS rats; for Change in BP, 1st day, 1 hr after dose / Change in HR, 1st day, 1 hr after dose / Change in BP, 1st day, 5 hrs after dose / Change in HR, 1st day, 5 hrs after dose / Change in BP, 4th day, 1 hr after dose / Change in HR, 4th day, 1 hr after dose / Change in BP, 4th day, 5 hrs after dose / Change in HR, 4th day, 5 hrs after dose: mean of 4 animals
# Experimental: Four spontaneously hypertensive male rats, strains MHS, weighing 250-300 g for each group were used.
# The animals were treated for four consecutive days. Drugs were administered by gastric gavage, suspended in 5% arabic gum (0.2 ml/100 g body weight). Blood pressure (BP) and heart rate (HR) were measured at the tail by BP Recorder W+W. Blood pressure and heart rate were measured on the 1st and 4th day of treatment 1 hour before and 1 and 5 hours after drug administration.
# *Data of LD50 from the literature. In Tables 1 and 2 are reported
# the results of the study of the activity of compounds 355/1165 and
# 355/1166 upon the BP and HR (measured indirectly by means of a tail cuff)
# of spontaneous hypertensive rats, MHS strain (4 rats each group). The
# compounds were given orally, once a day for 4 consecutive days.
# [4] = system: male mice; conditions: data of LD50 from the literature; cited from earlier work
# [5] = 3 mg/kg os, 30', mean of 6 animals
# [6] = 3 mg/kg os, 60', mean of 6 animals
# [7] = 3 mg/kg os, 120', mean of 6 animals
# [8] = 3 mg/kg os, 240', mean of 6 animals
# [9] = 3 mg/kg os, 360', mean of 6 animals
smiles,measurement,setting,value
"CN1CC(CCC(N)=O)C2Cc3cccc4[nH]cc(c34)CC21 (stereo not drawn) [355/1226, Trans-5(10→9)abeo-6-methyl-ergoline-8β-propionamide]","Change in blood pressure after treatment, 30'",[1]; [5],-19 mmHg
same,"Change in heart rate after treatment, 30'",[1]; [5],-33 b/min
same,"Change in blood pressure after treatment, 60'",[1]; [6],-28 mmHg
same,"Change in heart rate after treatment, 60'",[1]; [6],-30 b/min
same,"Change in blood pressure after treatment, 120'",[1]; [7],-40 mmHg
same,"Change in heart rate after treatment, 120'",[1]; [7],-23 b/min
same,"Change in blood pressure after treatment, 240'",[1]; [8],-32 mmHg
same,"Change in heart rate after treatment, 240'",[1]; [8],-16 b/min
same,"Change in blood pressure after treatment, 360'",[1]; [9],-25 mmHg
same,"Change in heart rate after treatment, 360'",[1]; [9],+4 b/min
same,Hypotensive activity compared with 355/1165 and 355/1166,[1]; 3 mg/kg per os,intermediate activity between compound 355/1165 and compound 355/1166
same,Effect on heart rate,[1]; oral (Table 4),slight bradycardia and never tachicardia
same,LD50 at 168 h,[2],> 800 mg/kg
same,"Change in BP, 1st day, 1 hr after dose","[3]; 1 mg/kg os, 1st day",-32 mmHg
same,"Change in HR, 1st day, 1 hr after dose","[3]; 1 mg/kg os, 1st day",-20 b/min
same,"Change in BP, 1st day, 5 hrs after dose","[3]; 1 mg/kg os, 1st day",-27 mmHg
same,"Change in HR, 1st day, 5 hrs after dose","[3]; 1 mg/kg os, 1st day",+3 b/min
same,"Change in BP, 4th day, 1 hr after dose","[3]; 1 mg/kg os, 4th day",-21 mmHg
same,"Change in HR, 4th day, 1 hr after dose","[3]; 1 mg/kg os, 4th day",-5 b/min
same,"Change in BP, 4th day, 5 hrs after dose","[3]; 1 mg/kg os, 4th day",-42 mmHg
same,"Change in HR, 4th day, 5 hrs after dose","[3]; 1 mg/kg os, 4th day",-13 b/min
same,"Change in BP, 1st day, 1 hr after dose","[3]; 3 mg/kg os, 1st day",-47 mmHg
same,"Change in HR, 1st day, 1 hr after dose","[3]; 3 mg/kg os, 1st day",-20 b/min
same,"Change in BP, 1st day, 5 hrs after dose","[3]; 3 mg/kg os, 1st day",-57 mmHg
same,"Change in HR, 1st day, 5 hrs after dose","[3]; 3 mg/kg os, 1st day",-10 b/min
same,"Change in BP, 4th day, 1 hr after dose","[3]; 3 mg/kg os, 4th day",-40 mmHg
same,"Change in HR, 4th day, 1 hr after dose","[3]; 3 mg/kg os, 4th day",-40 b/min
same,"Change in BP, 4th day, 5 hrs after dose","[3]; 3 mg/kg os, 4th day",-42 mmHg
same,"Change in HR, 4th day, 5 hrs after dose","[3]; 3 mg/kg os, 4th day",-45 b/min
same,Effect on BP,[3]; 1 and 3 mg/kg per os,"decreases BP; especially with the higher dose, this effect is remarkable and long lasting"
same,"Antihypertensive activity compared with Hydralazine, 1st day","[3]; 1st day, 355/1165 2 mg/kg, 355/1226 3 mg/kg per os vs Hydralazine 3 mg/kg per os",more marked antihypertensive activity
same,"Antihypertensive effect compared with Hydralazine, 4th day","[3]; 4th day, 355/1165 2 mg/kg, 355/1226 3 mg/kg per os vs Hydralazine 3 mg/kg per os",even greater effect
same,Tolerance after repeated administration,"[3]; four days, 355/1165 2 mg/kg, 355/1226 3 mg/kg, 355/1225 and 355/1229 5 mg/kg per os",tolerance does not occur after repeated administration
same,Activity compared with α-methyl-DOPA,"[3]; 355/1165 2 mg/kg, 355/1226 3 mg/kg per os",50 times
"C[C@](N)(Cc1ccc(O)c(O)c1)C(=O)O [α-Methyl-DOPA, reference compound]",LD50 (orientative toxicity in mice),[4],5300 mg/kg per os
same,"Change in BP, 1st day, 1 hr after dose","[3]; 30 mg/kg os, 1st day",-27 mmHg
same,"Change in HR, 1st day, 1 hr after dose","[3]; 30 mg/kg os, 1st day",+33 b/min
same,"Change in BP, 1st day, 5 hrs after dose","[3]; 30 mg/kg os, 1st day",-4 mmHg
same,"Change in HR, 1st day, 5 hrs after dose","[3]; 30 mg/kg os, 1st day",+36 b/min
same,"Change in BP, 4th day, 1 hr after dose","[3]; 30 mg/kg os, 4th day",-2 mmHg
same,"Change in HR, 4th day, 1 hr after dose","[3]; 30 mg/kg os, 4th day",+50 b/min
same,"Change in BP, 4th day, 5 hrs after dose","[3]; 30 mg/kg os, 4th day",0 mmHg
same,"Change in HR, 4th day, 5 hrs after dose","[3]; 30 mg/kg os, 4th day",+20 b/min
same,"Change in BP, 1st day, 1 hr after dose","[3]; 100 mg/kg os, 1st day",-6 mmHg
same,"Change in HR, 1st day, 1 hr after dose","[3]; 100 mg/kg os, 1st day",+73 b/min
same,"Change in BP, 1st day, 5 hrs after dose","[3]; 100 mg/kg os, 1st day",-22 mmHg
same,"Change in HR, 1st day, 5 hrs after dose","[3]; 100 mg/kg os, 1st day",+40 b/min
same,"Change in BP, 4th day, 1 hr after dose","[3]; 100 mg/kg os, 4th day",-19 mmHg
same,"Change in HR, 4th day, 1 hr after dose","[3]; 100 mg/kg os, 4th day",+70 b/min
same,"Change in BP, 4th day, 5 hrs after dose","[3]; 100 mg/kg os, 4th day",-31 mmHg
same,"Change in HR, 4th day, 5 hrs after dose","[3]; 100 mg/kg os, 4th day",+20 b/min
same,Effect on heart rate,"[3]; oral, all doses treated (Table 2)",no effect on heart rate
